Reference: patent US11857551B1, “Methods for the prevention and treatment of hearing loss” (Ting Therapeutics LLC, priority 2020, dated 2024)
Where a name gives a salt, the structure may show the parent alone.

Key:
[1] = test system: zebrafish hair cells; test: Excitotoxic hair cell damage in zebrafish (FIG. 4C); assay type: in vivo; conditions: P<0.05, one-way ANOVA
From the text: (*P<0.05, one-way ANOVA.)

[2] = test system: HEI-OC1 cells; test: Caspase-Glo 3/7 assay in cisplatin-treated HEI-OC1 cells; conditions: for activity at 13.3 µM / activity at 0.165 µM / activity at 40 µM: Mus musculus, HEI-OC1, 19 h, read-out: caspase activity reached; for caspase activity reached: normalized to cisplatin-only and media-only controls; for IC50: read-out: calculated IC50 (percent protection dose response, caspase 3/7), HEI-OC1 cells, 1 h pretreatment, 19 h co-incubation
Method: Cells were seeded at 8,000 cells/well in 96 well plates and left to attach overnight. […] The cells were co-incubated with cisplatin and drug candidates for an additional 19 hours prior to Caspase-Glo 3/7 assay (Promega, Madison, WI) as previously shown. […] The luminescence detection representing caspase activity in each well was obtained using a Cytation Hybrid Multi-Mode Reader (Biotek, Winooski, VT, USA). The percent protection of the cells was calculated using caspase 3/7 readouts and the following formula:
Caspase activity was measured using Caspase-Glo 3/7 assay and then the results were calculated as percentage of protection as an indicator of cell survival/viability. Percent protection for each compound at the tested dosages were then plotted to show dose response curves, and IC50s were calculated.

[3] = test system: zebrafish HCs (lateral-line neuromasts); test: Cisplatin ototoxicity in zebrafish, neuromast hair cell count
[4] = test system: cancer patients; conditions: cisplatin chemotherapy; cited from earlier work
[5] = test system: patients who received cisplatin chemotherapy; conditions: cited from earlier work
[6] = 0.002, 0.018, 0.165, 1.48, 13.3 μM for 1 hour, then co-incubation with 400 μM cisplatin for 4 hours

In the case of `O=c1[nH]cc(F)c(=O)[nH]1` [5-fluorouracil], the “protection of hair cells from excitotoxic damage” value [1] is reported as “protect hair cells from excitotoxic damage”, the activity at 13.3 µM [2] is reported as roughly 30% and the “protection against cisplatin ototoxicity (CIHL) in zebrafish” value (shortened to “protection against cisplatin ototoxicity”) [3, 6] is reported as “showed protection against CIHL”.
In the case of `Sc1ncnc2nc[nH]c12` [6 mercaptopurine], the activity at 0.165 µM [2] is reported as roughly 70% and the “protection against cisplatin ototoxicity” value [3, 6] is reported as “showed protection against CIHL”.
In the case of `N.N.[Cl][Pt][Cl]` [Cisplatin], the “permanent hearing loss, share of treated cancer patients” value [4] is listed as 40-60%.
In the case of `CCCCC1(C2CCCC2)Cc2cc(OCCCC(=O)O)c(Cl)c(Cl)c2C1=O` (stereo not drawn) [DCPIB], the caspase activity reached ([2]; dosage ~4.4 μM, cisplatin 50 μM) is reported as 0%, the IC50 ([2]; cisplatin 50 μM) is reported as 3.1 µM and the “protection against cisplatin ototoxicity” value [3, 6] is reported as “showed protection against CIHL”.
For `O=C(Nc1ccc([N+](=O)[O-])cc1Cl)c1cc(Cl)ccc1O` [Niclosamide], the “caspase-3/7 activity versus control cells (in words)” value ([2]; dose 4.4 μM, cisplatin 50 μM, n=3 wells) was “reduce caspase activity to comparable levels as control cells” and the “cisplatin damage in zebrafish HCs at SO3 and O1-2 neuromasts” value ([3]; pretreated with 0.002 μM, n=5 to 8 per group) was “significantly reduced Cisplatin damage”.
For `O=S([O-])([O-])=S.[Na+].[Na+]` [Sodium thiosulfate (STS), Sodium thiosulfate], the “protecting cisplatin-induced hearing loss (CIHL)” value ([5]; patients with other cancers) is listed as “ineffective” and the protecting hearing ([5]; pediatric patients with localized hepatoblastoma who received cisplatin chemotherapy) is listed as “effective”.
For `CC[C@@]1(O)C(=O)OCc2c1cc1n(c2=O)Cc2cc3ccccc3nc2-1` [camptothecin], the activity at 13.3 µM [2] was roughly 80% and the “protection against cisplatin ototoxicity” value [3, 6] was “showed protection against CIHL”.
For `C[C@H](CS)C(=O)N1CCC[C@H]1C(=O)O` [captopril], the activity at 0.165 µM [2] was roughly 85% and the “protection against cisplatin ototoxicity” value [3, 6] was “showed protection against CIHL”.
In the case of `CN1C(=O)[C@@]23C[C@]4([C@]56C[C@@]78SS[C@@](CO)(C(=O)N7[C@H]5Nc5ccccc56)N(C)C8=O)c5ccccc5N[C@@H]4N2C(=O)[C@]1(CO)SS3` [chaetocin], the activity at 13.3 µM [2] is reported as 0%.
In the case of `OCC(S)CS` (stereo not drawn) [dimercaptopropanol], the caspase activity reached ([2]; dosage ~40 μM, cisplatin 50 μM) is reported as 0%, the IC50 ([2]; cisplatin 50 μM) is reported as roughly 15 µM and the “protection against cisplatin ototoxicity” value [3, 6] is reported as “showed protection against CIHL”.
With `CO[C@H]1C[C@@H]2CC[C@@H](C)[C@@](O)(O2)C(=O)C(=O)N2CCCC[C@H]2C(=O)O[C@H]([C@H](C)C[C@@H]2CC[C@@H](OCCO)[C@H](OC)C2)CC(=O)[C@H](C)/C=C(\C)[C@@H](O)[C@@H](OC)C(=O)[C@H](C)C[C@H](C)/C=C/C=C/C=C/1C` [everolimus] the activity at 13.3 µM [2] was 0% and the “protection against cisplatin ototoxicity” value [3, 6] was “showed protection against CIHL”.
With `CC(Nc1nc(N2CCCC2)nc2ccccc12)c1ccccc1` (stereo not drawn) [importazole] the “protection of hair cells from excitotoxic damage” value [1] was “protect hair cells from excitotoxic damage”, the caspase activity reached ([2]; dosage ~40 μM, cisplatin 50 μM) was 0% and the IC50 ([2]; cisplatin 50 μM) was 6.52 µM. The “protection against cisplatin ototoxicity” value [3, 6] was “showed protection against CIHL”.
In the case of `CCc1c2c(nc3ccc(OC(=O)N4CCC(N5CCCCC5)CC4)cc13)-c1cc3c(c(=O)n1C2)COC(=O)[C@]3(O)CC` [irinotecan], the activity at 13.3 µM [2] is reported as roughly 60% and the “protection against cisplatin ototoxicity” value [3, 6] is reported as “showed protection against CIHL”.
With `CCCC[C@@H](C)/C=C(C)/C=C(\C)C(=O)NC1=C[C@@](O)(/C=C/C=C/C=C/C(=O)NC2=C(O)CCC2=O)[C@@H]2O[C@@H]2C1=O` [manumycin A] the caspase activity reached ([2]; dosage ~1.48 μM, cisplatin 50 μM) was roughly 35%, the IC50 ([2]; cisplatin 50 μM) was 11.7 µM and the “protection against cisplatin ototoxicity” value [3, 6] was “showed protection against CIHL”.
`CC(=O)c1c(C)c2cnc(Nc3ccc(N4CCNCC4)cn3)nc2n(C2CCCC2)c1=O` [palbociclib] showed an activity at 40 µM [2] of roughly 80%.
In the case of `C1CCC(C(CC2CCCCN2)C2CCCCC2)CC1` (stereo not drawn) [perhexiline maleate], the activity at 40 µM [2] is reported as 0% and the “protection against cisplatin ototoxicity” value [3, 6] is reported as “showed protection against CIHL”.
For `CCCc1cc(C(N)=S)ccn1` [prothionamide], the activity at 40 µM [2] was roughly 50% and the “protection against cisplatin ototoxicity” value [3, 6] was “showed protection against CIHL”.
In the case of `C[C@@H]1C[C@H]2O[C@@H]2/C=C\C=C\C(=O)Cc2c(Cl)c(O)cc(O)c2C(=O)O1` [radicicol], the activity at 13.3 µM [2] is reported as 0% and the “protection against cisplatin ototoxicity” value [3, 6] is reported as “showed protection against CIHL”.
With `Cc1nc2ccc(CN(C)c3ccc(C(=O)N[C@@H](CCC(=O)O)C(=O)O)s3)cc2c(=O)[nH]1` [raltitrexed] the activity at 40 µM [2] was roughly 20% and the “protection against cisplatin ototoxicity” value [3, 6] was “showed protection against CIHL”.
For `CC(=O)c1c(O)c(C)c(O)c(Cc2c(O)c3c(c(C(=O)/C=C/c4ccccc4)c2O)OC(C)(C)C=C3)c1O` [rottlerin], the activity at 13.3 µM [2] was 0% and the “protection against cisplatin ototoxicity” value [3, 6] was “showed protection against CIHL”.
In the case of `CC(C(=O)Nc1cccc(/N=C/c2c(O)ccc3ccccc23)c1)c1ccccc1` (stereo not drawn) [salermide], the activity at 40 µM [2] is reported as 0% and the “protection against cisplatin ototoxicity” value [3, 6] is reported as “showed protection against CIHL”.
In the case of `O=C(O)[C@@H](S)[C@@H](S)C(=O)O` [succimer], the activity at 40 µM [2] is reported as roughly 80% and the “protection against cisplatin ototoxicity” value [3, 6] is reported as “showed protection against CIHL”.
In the case of `CSc1ccc2c(c1)N(CCC1CCCCN1C)c1ccccc1S2` (stereo not drawn) [thioridazine], the activity at 40 µM [2] is reported as 0% and the “protection against cisplatin ototoxicity” value ([3]; zebrafish, in vivo) is reported as “showed protection against CIHL”.
For `CC(S)C(=O)NCC(=O)O` (stereo not drawn) [tiopronin], the “protection against cisplatin ototoxicity” value [3, 6] was “showed protection against CIHL”.
`COC[C@H]1OC(=O)c2coc3c2[C@@]1(C)C1=C(C3=O)[C@@H]2CCC(=O)[C@@]2(C)C[C@H]1OC(C)=O` [wortmannin] showed an activity at 40 µM [2] of roughly 50%.
